# Results reported in US12121540B2, “CBL inhibitors and compositions for use in adoptive cell therapy” (Nurix Therapeutics, Inc., priority 2019, dated 2024).
# What was measured:
# [1] = tested on: TIL from human ovarian, colon and breast cancer tissues; experiment: Phenotype of TIL expanded in 24 well or GREX10 format (flow cytometry); format: cell-based
# Experimental: Initial studies involved TIL expansion with ovarian and CRC tumor tissues (average about 0.5-0.8 g). These were fragmented into multiple pieces (approximately 2 mm^3 in size), and one fragment was added per 24 well plate. […] The wells were then pooled by treatment and total cell numbers were assessed by flow cytometry. Following TIL expansion the phenotypes of the cells were characterized. They were majority CD45RO+ and CD4+ and CD8+.
# TIL directly derived from fresh ovarian and colon cancer tissues (fresh, n=8) obtained after 28 days' ex vivo culture of cancer tissue fragments were analyzed by flow cytometry. FIG. 24 provides FACS data showing percentages of central memory(CD45RO+CCR7+) and effector memory (CD45RO+CCR7−) phenotype among CD8+CD45RO+, respectively. FACS results expressed as the mean±SEM. Statistical significance calculated using two-tailed Wilcoxon signed-rank test (*, p<0.05). The CD8 T cells were further characterized by assessing T cell differentiation phenotypic markers; CCR7 and CD45RO. […] This indicates the expansion of a less differentiated, persistent T cell.
# TIL directly derived from fresh ovarian, colon and breast cancer tissues (fresh, n=7) obtained after 14 days' ex vivo culture of cancer tissue fragments were analyzed by flow cytometry. FIG. 26 provides FACS data showing percentages of central memory […] phenotype among CD8+CD45RO+, respectively. FACS results were expressed as the mean±SEM.
# [2] = tested on: human tumor-infiltrating lymphocytes (TIL); experiment: Ex vivo expansion of TIL from human tumor fragments (pre-REP); format: cell-based; settings: for Expansion of TIL, total cell number relative to IL-2 alone: day 17
# Experimental: Samples of human ovarian and colon tumors were obtained from the Cooperative Human Tissue Network (CHTN, c/o Vanderbilt University Medical Center, Nashville, TN). Solid tumor specimens were carefully dissected free of surrounding fatty and necrotic areas. The tumors were sliced into 8 mm^3 (2×2×2 mm^3) fragments under sterile conditions using a scalpel and a scalpel holder.
# The plates were placed in a humidified 37° C. incubator with 5% CO2. Half of the medium was replaced every two days after culture initiation. […] Subsequently, half the media was replaced thrice weekly, cultures were split to maintain a cell density of 1×10^6 cells/mL. […] Mitochondrial markers including, Mitotracker, Mitoprobe, and 2-NBDG may also be used to assess differentiation and/or activation of cells.
# breast TIL = experiment: CDR3 diversity of expanded breast TIL (iRepertoire sequencing); format: cell-based, human; settings: compound 103 alone or with high dose IL-2; 14 days in GREX10
# Experimental: TIL were cultured for 14 days in GREX10. […] The raw data were analyzed by iRepertoire using IRmap programs with a modified Smith-Waterman algorithm. Using CDR3 algerbra software, the calculation of shared CDR3s across samples with the indicated treatment was assessed. […] All CDR3 frequencies were scaled to 10 million reads to account for differences in read depth among samples. Data was normalized so that each uCDR3-VDJ combination was treated as a quantity of 1 regardless of read count, and then analyzed for V usage and J usage.
# OT-1 cells = experiment: Tumor re-challenge of long term survivors 149 days after OT-1 transfer; format: in vivo, mouse
# From the text: To determine whether OT-1 cells are capable of long-term tumor protection, the long term survivors of the above experiment (FIG. 12) were re-challenged with a lethal dose of E.G7-OVA tumor cells 149 days after the initial adoptive transfer of the in vitro expanded OT-1 cells. Re-challenge induced OT-1 cell expansion at the site engrafted with E.G7-OVA tumor cells expressing ovalbumin antigen, thereby effectively controlling tumor growth (FIG. 21).
# [3] = 6000 IU IL-2 + 1 uM compound 103, 28 days, 24 well
structure (smiles),measurement,setting,value
C[C@@H]1CN(Cc2cc3c(c(C(F)(F)F)c2)CN(c2cccc(C4(Cc5nncn5C)COC4)c2)C3=O)CCC1(F)F [compound 103],% CD4 T cells vs IL-2 alone,[1]; [3],decrease in the % of CD4
same,CD8 T cells vs IL-2 alone,[1]; [3],corresponding increase in CD8
same,Central memory T cells (CCR7+CD45RO+) among CD8 vs IL-2 alone,"[1]; IL-2 + compound 103, 28 days, FIG. 24",significant increase of central memory T cells
same,CD8 T cell expansion (% and total numbers),"[1]; IL-2 + compound 103, GREX 10, 14 days",increased expansion of CD8 T cells
same,Expansion of TIL,[2]; Cbl inhibitor in the absence of IL-2,considerable expansion of TIL
same,"Expansion of TIL, total cell number relative to IL-2 alone","[2]; TIL1 (ovary), 0.1 μM Cbl-i",90%
same,"Expansion of TIL, total cell number relative to IL-2 alone","[2]; TIL1 (ovary), 1.0 μM Cbl-i",75%
same,"Expansion of TIL, total cell number relative to IL-2 alone","[2]; TIL1 (ovary), 10 μM Cbl-i",60%
same,"Expansion of TIL, total cell number relative to IL-2 alone","[2]; TIL1 (ovary), IL-2 + 0.1 μM Cbl-i",300%
same,"Expansion of TIL, total cell number relative to IL-2 alone","[2]; TIL1 (ovary), IL-2 + 1.0 μM Cbl-i",450%
same,"Expansion of TIL, total cell number relative to IL-2 alone","[2]; TIL1 (ovary), IL-2 + 10 μM Cbl-i",450%
same,"Expansion of TIL, total cell number relative to IL-2 alone","[2]; TIL2 (ovary), 0.1 μM Cbl-i",30%
same,"Expansion of TIL, total cell number relative to IL-2 alone","[2]; TIL2 (ovary), 1.0 μM Cbl-i",26%
same,"Expansion of TIL, total cell number relative to IL-2 alone","[2]; TIL2 (ovary), 10 μM Cbl-i",22%
same,"Expansion of TIL, total cell number relative to IL-2 alone","[2]; TIL2 (ovary), IL-2 + 0.1 μM Cbl-i",49%
same,"Expansion of TIL, total cell number relative to IL-2 alone","[2]; TIL2 (ovary), IL-2 + 1.0 μM Cbl-i",86%
same,"Expansion of TIL, total cell number relative to IL-2 alone","[2]; TIL2 (ovary), IL-2 + 10 μM Cbl-i",49%
same,"Expansion of TIL, total cell number relative to IL-2 alone","[2]; TIL3 (ovary), 0.1 μM Cbl-i",30%
same,"Expansion of TIL, total cell number relative to IL-2 alone","[2]; TIL3 (ovary), 1.0 μM Cbl-i",43%
same,"Expansion of TIL, total cell number relative to IL-2 alone","[2]; TIL3 (ovary), 10 μM Cbl-i",16%
same,"Expansion of TIL, total cell number relative to IL-2 alone","[2]; TIL3 (ovary), IL-2 + 0.1 μM Cbl-i",103%
same,"Expansion of TIL, total cell number relative to IL-2 alone","[2]; TIL3 (ovary), IL-2 + 1.0 μM Cbl-i",114%
same,"Expansion of TIL, total cell number relative to IL-2 alone","[2]; TIL3 (ovary), IL-2 + 10 μM Cbl-i",110%
same,"Expansion of TIL, total cell number relative to IL-2 alone","[2]; TIL4 (colon), 0.1 μM Cbl-i",45%
same,"Expansion of TIL, total cell number relative to IL-2 alone","[2]; TIL4 (colon), 1.0 μM Cbl-i",58%
same,"Expansion of TIL, total cell number relative to IL-2 alone","[2]; TIL4 (colon), 10 μM Cbl-i",54%
same,"Expansion of TIL, total cell number relative to IL-2 alone","[2]; TIL4 (colon), IL-2 + 0.1 μM Cbl-i",113%
same,"Expansion of TIL, total cell number relative to IL-2 alone","[2]; TIL4 (colon), IL-2 + 1.0 μM Cbl-i",197%
same,"Expansion of TIL, total cell number relative to IL-2 alone","[2]; TIL4 (colon), IL-2 + 10 μM Cbl-i",170%
same,"Expansion of TIL, total cell number relative to IL-2 alone","[2]; TIL5 (ovary), 0.1 μM Cbl-i",50%
same,"Expansion of TIL, total cell number relative to IL-2 alone","[2]; TIL5 (ovary), 1.0 μM Cbl-i",70%
same,"Expansion of TIL, total cell number relative to IL-2 alone","[2]; TIL5 (ovary), 10 μM Cbl-i",90%
same,"Expansion of TIL, total cell number relative to IL-2 alone","[2]; TIL5 (ovary), IL-2 + 0.1 μM Cbl-i",20%
same,"Expansion of TIL, total cell number relative to IL-2 alone","[2]; TIL5 (ovary), IL-2 + 1.0 μM Cbl-i",10%
same,"Expansion of TIL, total cell number relative to IL-2 alone","[2]; TIL5 (ovary), IL-2 + 10 μM Cbl-i",20%
same,"Expansion of TIL, total cell number relative to IL-2 alone","[2]; TIL6 (ovary), 0.1 μM Cbl-i",93%
same,"Expansion of TIL, total cell number relative to IL-2 alone","[2]; TIL6 (ovary), 1.0 μM Cbl-i",87%
same,"Expansion of TIL, total cell number relative to IL-2 alone","[2]; TIL6 (ovary), 10 μM Cbl-i",80%
same,"Expansion of TIL, total cell number relative to IL-2 alone","[2]; TIL6 (ovary), IL-2 + 0.1 μM Cbl-i",280%
same,"Expansion of TIL, total cell number relative to IL-2 alone","[2]; TIL6 (ovary), IL-2 + 1.0 μM Cbl-i",260%
same,"Expansion of TIL, total cell number relative to IL-2 alone","[2]; TIL6 (ovary), IL-2 + 10 μM Cbl-i",240%
same,Production of TIL vs IL-2 or Cbl inhibitor alone,"[2]; both IL-2 and Cbl inhibitor, TIL1 and TIL4",substantially more TIL
same,Unique CDR3s,breast TIL,Unique CDR3s increased
same,Number of OT-1 cells in blood (in vivo persistence),"OT-1 cells; 149 days after transfer, expanded with Cbl inhibitor or Cbl inhibitor plus IL-2",present at a higher number in the blood
same,Recall response after tumor re-challenge vs IL-2 alone,"OT-1 cells; OT-1 cells per ml of blood at day 5, Cbl inhibitor or Cbl inhibitor plus IL-2",significantly more rapid recall response
